Reference: PubChem BioAssay AID743428 (The Scripps Research Institute Molecular Screening Center, 2014)
Activity calls are given as the source filed them. How the calls were made is not given here.

Biological target: Sphingosine 1-phosphate receptor 2 (Homo sapiens) (UniProt O95136)
Assay: antagonism at human S1PR2 – cell-based, FRET, dose response, counter-screen for S1PR3 antagonist project, late-stage follow-up (AID 743428)
Conditions: S1P2-expressing cells, FRET reporter, antagonist counterscreen

Chain of Sphingosine 1-phosphate receptor 2 (Homo sapiens) (O95136 whole entry, looked up): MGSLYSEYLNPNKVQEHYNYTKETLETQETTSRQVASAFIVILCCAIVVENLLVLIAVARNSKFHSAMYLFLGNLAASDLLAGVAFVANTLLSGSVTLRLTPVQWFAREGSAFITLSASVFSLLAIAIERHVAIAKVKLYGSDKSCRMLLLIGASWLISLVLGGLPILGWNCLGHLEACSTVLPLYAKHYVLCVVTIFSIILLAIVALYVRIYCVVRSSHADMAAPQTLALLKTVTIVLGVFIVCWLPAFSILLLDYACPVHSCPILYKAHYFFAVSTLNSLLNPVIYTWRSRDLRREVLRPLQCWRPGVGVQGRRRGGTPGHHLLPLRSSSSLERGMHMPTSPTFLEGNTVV

SMILES	IC50
O=C(NC(c1ccc(Cl)cc1)c1nc(-c2ccccc2)no1)c1cccc(Cl)c1 (configuration not stated)	> 50 µM (inactive)
COc1ccc(C(=O)NC(c2ccccc2)c2nc(-c3ccccc3)no2)cc1 (configuration not stated)	> 50 µM (inactive)
O=C(NC(c1nc(-c2ccccc2)no1)C1CCCCC1)c1ccc(Cl)c(Cl)c1 (configuration not stated)	> 50 µM (inactive)
O=C(NC(c1ccc(Cl)cc1)c1nc(-c2ccccc2)no1)c1cccc(Br)c1 (configuration not stated)	> 50 µM (inactive)
N#Cc1ccc(C(=O)NC(c2ccc(Cl)c(Cl)c2)c2nc(-c3ccccc3)no2)cc1 (configuration not stated)	> 50 µM (inactive)
O=C(NC(c1cccc(Cl)c1)c1nc(-c2ccccc2)no1)c1cccc(Cl)c1 (configuration not stated)	> 50 µM (inactive)
O=C(NC(c1ccccc1)c1nc(-c2ccccc2)no1)c1cccc(Cl)c1 (configuration not stated)	> 50 µM (inactive)
O=C(NC(c1ccc(Cl)c(Cl)c1)c1nc(-c2ccccc2)no1)c1ccc(Cl)c(Cl)c1 (configuration not stated)	> 50 µM (inactive)
O=C(NC(c1ccc(Cl)c(Cl)c1)c1nc(-c2ccccc2)no1)c1ccc(Cl)cc1 (configuration not stated)	> 50 µM (inactive)
O=C(NC(c1ccccc1)c1nc(-c2ccccc2)no1)c1cccc(Cl)n1 (configuration not stated)	> 50 µM (inactive)
Cc1ccc(C(NC(=O)c2cccc(Cl)c2)c2nc(-c3ccccc3)no2)cc1 (configuration not stated)	> 50 µM (inactive)
O=C(NC(c1ccccc1)c1nc(-c2ccccc2)no1)c1ccc(Cl)cc1 (configuration not stated)	> 50 µM (inactive)
O=C(NC(c1ccc(Cl)cc1)c1nc(-c2cccc(Cl)c2)no1)c1cccc(Cl)c1 (configuration not stated)	> 50 µM (inactive)
O=C(NC(c1ccc(Cl)cc1)c1nc(-c2ccccn2)no1)c1cccc(Cl)c1 (configuration not stated)	> 50 µM (inactive)
Cc1ccc(C(=O)NC(c2ccccc2)c2nc(-c3ccccc3)no2)cc1 (configuration not stated)	> 50 µM (inactive)
O=C(NC(c1ccc(Cl)c(Cl)c1)c1nc(-c2ccccc2)no1)c1ccccc1 (configuration not stated)	> 50 µM (inactive)
O=C(NC(c1cccc(Cl)c1)c1nc(-c2ccccc2)no1)c1cc(Cl)cc(Cl)c1 (configuration not stated)	> 50 µM (inactive)
O=C(NC(Cc1ccccc1)c1nc(-c2ccccc2)no1)c1cccc(Cl)c1 (configuration not stated)	inactive
O=C(NC(c1ccc(Cl)cc1)c1nc(-c2ccccc2)no1)c1ccc(Cl)c(Cl)c1 (configuration not stated)	> 50 µM (inactive)
O=C(NC(c1nc(-c2ccccc2)no1)C1CCOCC1)c1ccc(Cl)c(Cl)c1 (configuration not stated)	> 50 µM (inactive)
O=C(NC(c1ccccc1)c1nc(-c2ccccc2)no1)c1cccc(Br)c1 (configuration not stated)	> 50 µM (inactive)
O=C(NC(c1cccc(Cl)c1)c1nc(-c2ccccc2)no1)c1ccc(Cl)c(Cl)c1 (configuration not stated)	> 50 µM (inactive)
CCc1ccc(C(NC(=O)c2cccc(Cl)c2)c2nc(-c3ccccc3)no2)cc1 (configuration not stated)	> 50 µM (inactive)
O=C(NC(c1ccc(Br)cc1)c1nc(-c2ccccc2)no1)c1ccc(Cl)c(Cl)c1 (configuration not stated)	> 50 µM (inactive)
O=C(NC(c1ccc(Cl)c(Cl)c1)c1nc(-c2ccccc2)no1)c1cccc(Cl)c1 (configuration not stated)	> 50 µM (inactive)
O=C(c1cccc(Cl)c1)N(CCO)C(c1ccc(Cl)c(Cl)c1)c1nc(-c2ccccc2)no1 (configuration not stated)	inactive
O=C(NC(c1ccc(Cl)cc1)c1nc(-c2ccccc2)no1)c1ccc(Cl)c(Br)c1 (configuration not stated)	> 50 µM (inactive)
